{"source": "patent US20150343016A1", "about": "“CHEMICAL ENTITIES AND THERAPEUTIC USES THEREOF” (The Regents of the University of Colorado, a body corporate, priority 2010, published 2015)", "key": {"LD50 in mice": {"assay": "LD50 in mice", "settings": "mouse, in vivo"}, "[1]": {"system": "UM-SCC19 Head and Neck Cancer cell line", "assay": "MTT assay, Bouvardin with ionizing radiation, UM-SCC19 (pre-treated)", "type": "cell-based, human", "settings": "UM-SCC19 cells", "experimental": "“Combination Index” computation. Combination Indices were calculated using CalcuSyn software (Biosoft), which uses the method of Chou and Talalay. This method first computes drug-induced effect using the Hill Equation: where E is the measured effect; C is the drug concentration; Emax is the full range of drug effect, usually at or near 100%; IC50 is the drug concentration producing the median effect of 50%; and n is the curve shape parameter describing the steepness of the concentration-effect relationship. The Chou and Talalay method then linearizes the Hill Equation by logarithmic transformation as: where fu is the fraction of cells left unaffected after drug exposure, fa is the fraction of cells affected by the exposure, C is the drug concentration used, Cm is the concentration to achieve the median effect, and n is the curve shape parameter. Cm and n are equivalent to IC50 and n, respectively, in the Hill Equation. The values of n (obtained from the slope), nlog(Cm) (obtained from the absolute value of the intercept), and, therefore, Cm are obtained by plotting log(fu−1−1) versus log(C). These numbers are then used to compute the Combination Index (CI) according to the formula: CI=(D)1/(Dx)1+(D)2/(Dx)2 (26). (Dx)1 and (Dx)2 are the doses required to achieve a given effect level for each treatment, i.e. a specified value of Fraction Affected or Fa. (D)1 and (D)2 are the doses of each treatment in a given combination which gives the same Fa.\nThe growth inhibitory effects of Bouvardin with ionizing radiation (IR) were evaluated using a modified tetrazolium salt (MTT) assay. In the MTT assay, 1,000 to 2,000 viable cells were plated in 100 uL of growth medium in 96-well plates (Corning, Ithaca, N.Y.). Following an overnight incubation, drug was added in varying concentrations and the plates were irradiated on the same day (co-treatment) or 24 hr later (pre-treatment) and incubated for 6 to 7 days. The tetrazolium salt was added at a concentration of 0.4 mg/mL to each well following the 6- to 7-day treatment. The plates were incubated with the salt for 4 hours at 37° C. At 4 hours, the medium was aspirated off, leaving the dark blue formazan product at the bottom of the wells. The reduced MTT product was solubilized by adding […] of 0.2 N HCl in 75% isopropanol, 23% MilliQ water to each well. Thorough mixing was done using a Titertek multichannel pipetman. The absorbency of each well was measured using an automated plate reader (Molecular Devices, Sunnyvale, Calif.). All experiments were done in triplicate.\nMTT assays were used to determine the effect of Bouvardin (concentrations in uM) in combination with ionizing radiation (in Gy, X-axis). FIG. 14 depicts CI values for Bouvardin and radiation on 3 cell lines. Combination Index data from 3 different Head and Neck Cancer cell lines are shown. Black dashed lines represent a CI value of 1. CI values below 1 indicate synergy. 1586 and UM-SCC19 were pre-treated whereas HN31 was treated on the same day."}, "FaDu cells": {"system": "FaDu cells", "assay": "CellTiter-Glo Luminescent Cell Viability Assay, Bouvardin with Taxol, FaDu", "type": "cell-based, human", "experimental": "“Combination Index” computation. Combination Indices were calculated using CalcuSyn software (Biosoft), which uses the method of Chou and Talalay. This method first computes drug-induced effect using the Hill Equation: where E is the measured effect; C is the drug concentration; Emax is the full range of drug effect, usually at or near 100%; IC50 is the drug concentration producing the median effect of 50%; and n is the curve shape parameter describing the steepness of the concentration-effect relationship. The Chou and Talalay method then linearizes the Hill Equation by logarithmic transformation as: where fu is the fraction of cells left unaffected after drug exposure, fa is the fraction of cells affected by the exposure, C is the drug concentration used, Cm is the concentration to achieve the median effect, and n is the curve shape parameter. Cm and n are equivalent to IC50 and n, respectively, in the Hill Equation. The values of n (obtained from the slope), nlog(Cm) (obtained from the absolute value of the intercept), and, therefore, Cm are obtained by plotting log(fu−1−1) versus log(C). […]\nThe growth inhibitory effects of Bouvardin with Taxol were evaluated using CellTiter-Glo® Luminescent Cell Viability Assay (Promega G7570). […] Luminescence of each well was measured using an automated plate reader."}}, "data": [{"compound": "COc1ccc(C[C@H]2C(=O)N[C@H](C)C(=O)N(C)[C@@H]3C(=O)N(C)[C@@H](Cc4ccc(O)c(c4)Oc4ccc(cc4)[C@H]3O)C(=O)N[C@@H](C)C(=O)N[C@H](C)C(=O)N2C)cc1", "note": "(stereo in doubt) [Bouvardin, bouvardin]", "values": [{"measurement": "LD50", "setting": "LD50 in mice", "result": 12.4, "unit": "mg/kg"}, {"measurement": "Combination Index", "setting": "[1]; Bouvardin 0.001 uM + 1 Gy IR", "result": 13.885}, {"measurement": "Fraction Affected", "setting": "[1]; Bouvardin 0.001 uM + 1 Gy IR", "result": 0.143}, {"measurement": "Combination Index", "setting": "[1]; Bouvardin 0.001 uM + 2 Gy IR", "result": 2.245}, {"measurement": "Fraction Affected", "setting": "[1]; Bouvardin 0.001 uM + 2 Gy IR", "result": 0.28}, {"measurement": "Combination Index", "setting": "[1]; Bouvardin 0.001 uM + 4 Gy IR", "result": 1.023}, {"measurement": "Fraction Affected", "setting": "[1]; Bouvardin 0.001 uM + 4 Gy IR", "result": 0.386}, {"measurement": "Combination Index", "setting": "[1]; Bouvardin 0.003 uM + 1 Gy IR", "result": 5.143}, {"measurement": "Fraction Affected", "setting": "[1]; Bouvardin 0.003 uM + 1 Gy IR", "result": 0.227}, {"measurement": "Combination Index", "setting": "[1]; Bouvardin 0.003 uM + 2 Gy IR", "result": 1.22}, {"measurement": "Fraction Affected", "setting": "[1]; Bouvardin 0.003 uM + 2 Gy IR", "result": 0.366}, {"measurement": "Combination Index", "setting": "[1]; Bouvardin 0.003 uM + 4 Gy IR", "result": 0.627}, {"measurement": "Fraction Affected", "setting": "[1]; Bouvardin 0.003 uM + 4 Gy IR", "result": 0.466}, {"measurement": "Combination Index", "setting": "[1]; Bouvardin 0.006 uM + 1 Gy IR", "result": 1.696}, {"measurement": "Fraction Affected", "setting": "[1]; Bouvardin 0.006 uM + 1 Gy IR", "result": 0.354}, {"measurement": "Combination Index", "setting": "[1]; Bouvardin 0.006 uM + 2 Gy IR", "result": 0.762}, {"measurement": "Fraction Affected", "setting": "[1]; Bouvardin 0.006 uM + 2 Gy IR", "result": 0.448}, {"measurement": "Combination Index", "setting": "[1]; Bouvardin 0.006 uM + 4 Gy IR", "result": 0.82}, {"measurement": "Fraction Affected", "setting": "[1]; Bouvardin 0.006 uM + 4 Gy IR", "result": 0.461}, {"measurement": "Combination Index", "setting": "[1]; Bouvardin 0.01 uM + 1 Gy IR", "result": 1.561}, {"measurement": "Fraction Affected", "setting": "[1]; Bouvardin 0.01 uM + 1 Gy IR", "result": 0.395}, {"measurement": "Combination Index", "setting": "[1]; Bouvardin 0.01 uM + 2 Gy IR", "result": 0.694}, {"measurement": "Fraction Affected", "setting": "[1]; Bouvardin 0.01 uM + 2 Gy IR", "result": 0.49}, {"measurement": "Combination Index", "setting": "[1]; Bouvardin 0.01 uM + 4 Gy IR", "result": 0.619}, {"measurement": "Fraction Affected", "setting": "[1]; Bouvardin 0.01 uM + 4 Gy IR", "result": 0.521}, {"measurement": "Combination Index", "setting": "[1]; Bouvardin 0.03 uM + 1 Gy IR", "result": 1.414}, {"measurement": "Fraction Affected", "setting": "[1]; Bouvardin 0.03 uM + 1 Gy IR", "result": 0.44}, {"measurement": "Combination Index", "setting": "[1]; Bouvardin 0.03 uM + 2 Gy IR", "result": 0.777}, {"measurement": "Fraction Affected", "setting": "[1]; Bouvardin 0.03 uM + 2 Gy IR", "result": 0.511}, {"measurement": "Combination Index", "setting": "[1]; Bouvardin 0.03 uM + 4 Gy IR", "result": 0.848}, {"measurement": "Fraction Affected", "setting": "[1]; Bouvardin 0.03 uM + 4 Gy IR", "result": 0.515}, {"measurement": "Combination Index", "setting": "[1]; Bouvardin 0.06 uM + 1 Gy IR", "result": 1.587}, {"measurement": "Fraction Affected", "setting": "[1]; Bouvardin 0.06 uM + 1 Gy IR", "result": 0.431}, {"measurement": "Combination Index", "setting": "[1]; Bouvardin 0.06 uM + 2 Gy IR", "result": 1.482}, {"measurement": "Fraction Affected", "setting": "[1]; Bouvardin 0.06 uM + 2 Gy IR", "result": 0.444}, {"measurement": "Combination Index", "setting": "[1]; Bouvardin 0.06 uM + 4 Gy IR", "result": 1.01}, {"measurement": "Fraction Affected", "setting": "[1]; Bouvardin 0.06 uM + 4 Gy IR", "result": 0.498}, {"measurement": "Combination Index", "setting": "[1]; Bouvardin 0.1 uM + 1 Gy IR", "result": 2.102}, {"measurement": "Fraction Affected", "setting": "[1]; Bouvardin 0.1 uM + 1 Gy IR", "result": 0.437}, {"measurement": "Combination Index", "setting": "[1]; Bouvardin 0.1 uM + 2 Gy IR", "result": 1.027}, {"measurement": "Fraction Affected", "setting": "[1]; Bouvardin 0.1 uM + 2 Gy IR", "result": 0.518}, {"measurement": "Combination Index", "setting": "[1]; Bouvardin 0.1 uM + 4 Gy IR", "result": 1.691}, {"measurement": "Fraction Affected", "setting": "[1]; Bouvardin 0.1 uM + 4 Gy IR", "result": 0.473}, {"measurement": "Combination Index", "setting": "[1]; Bouvardin 0.3 uM + 1 Gy IR", "result": 1.313}, {"measurement": "Fraction Affected", "setting": "[1]; Bouvardin 0.3 uM + 1 Gy IR", "result": 0.523}, {"measurement": "Combination Index", "setting": "[1]; Bouvardin 0.3 uM + 2 Gy IR", "result": 1.347}, {"measurement": "Fraction Affected", "setting": "[1]; Bouvardin 0.3 uM + 2 Gy IR", "result": 0.524}, {"measurement": "Combination Index", "setting": "[1]; Bouvardin 0.3 uM + 4 Gy IR", "result": 1.052}, {"measurement": "Fraction Affected", "setting": "[1]; Bouvardin 0.3 uM + 4 Gy IR", "result": 0.558}, {"measurement": "Combination Index", "setting": "[1]; Bouvardin 0.6 uM + 1 Gy IR", "result": 1.704}, {"measurement": "Fraction Affected", "setting": "[1]; Bouvardin 0.6 uM + 1 Gy IR", "result": 0.532}, {"measurement": "Combination Index", "setting": "[1]; Bouvardin 0.6 uM + 2 Gy IR", "result": 1.546}, {"measurement": "Fraction Affected", "setting": "[1]; Bouvardin 0.6 uM + 2 Gy IR", "result": 0.545}, {"measurement": "Combination Index", "setting": "[1]; Bouvardin 0.6 uM + 4 Gy IR", "result": 1.251}, {"measurement": "Fraction Affected", "setting": "[1]; Bouvardin 0.6 uM + 4 Gy IR", "result": 0.573}, {"measurement": "Combination Index", "setting": "[1]; Bouvardin 1 uM + 1 Gy IR", "result": 13.885}, {"measurement": "Fraction Affected", "setting": "[1]; Bouvardin 1 uM + 1 Gy IR", "result": 0.143}, {"measurement": "Combination Index", "setting": "[1]; Bouvardin 1 uM + 2 Gy IR", "result": 2.245}, {"measurement": "Fraction Affected", "setting": "[1]; Bouvardin 1 uM + 2 Gy IR", "result": 0.28}, {"measurement": "Combination Index", "setting": "[1]; Bouvardin 1 uM + 4 Gy IR", "result": 1.023}, {"measurement": "Fraction Affected", "setting": "[1]; Bouvardin 1 uM + 4 Gy IR", "result": 0.386}, {"measurement": "Bouvardin concentration up to which synergy was seen when combined with taxol", "setting": "FaDu cells; Det562 and FaDu (FIG. 18)", "result": "up to 0.3 μM"}, {"measurement": "interaction of Bouvardin with Taxol", "setting": "FaDu cells; FaDu", "result": "synergy with Taxol over a wide range of concentrations"}]}]}
